Data as given in paper PMC4890880 (ACS infectious diseases, 2016).
Where two headings read alike, the source gives them in different places.

Columns and labels:
HepG2-A16-CD81EGFP cells [1] = assay: cells; conditions: Homo sapiens; for IC50: HepG2, read-out: Tox IC50; for inhibition at 50 µM: HepG2, read-out: Tox max inhibition (%) @ 50 uM; for inhibition at 10 µM: HepG2, read-out: Tox max inhibition (%) @ 10 uM
[2] = test system: Plasmodium berghei (Pb-Luc) exoerythrocytic-stage parasites; assay: microbe, parasite or virus in culture; conditions: for inhibition at 10 µM: read-out: PbLuc max inhibition (%) @ 10 uM
[3] = molecular target: QuantiLum Recombinant Luciferase (Photinus pyralis, UniProt P08659); assay: Bioluminescence quantification of compound luciferase inhibition; conditions: for Emax: read-out: LucInhib max inhibition
Chain of QuantiLum Recombinant Luciferase (P08659 whole entry): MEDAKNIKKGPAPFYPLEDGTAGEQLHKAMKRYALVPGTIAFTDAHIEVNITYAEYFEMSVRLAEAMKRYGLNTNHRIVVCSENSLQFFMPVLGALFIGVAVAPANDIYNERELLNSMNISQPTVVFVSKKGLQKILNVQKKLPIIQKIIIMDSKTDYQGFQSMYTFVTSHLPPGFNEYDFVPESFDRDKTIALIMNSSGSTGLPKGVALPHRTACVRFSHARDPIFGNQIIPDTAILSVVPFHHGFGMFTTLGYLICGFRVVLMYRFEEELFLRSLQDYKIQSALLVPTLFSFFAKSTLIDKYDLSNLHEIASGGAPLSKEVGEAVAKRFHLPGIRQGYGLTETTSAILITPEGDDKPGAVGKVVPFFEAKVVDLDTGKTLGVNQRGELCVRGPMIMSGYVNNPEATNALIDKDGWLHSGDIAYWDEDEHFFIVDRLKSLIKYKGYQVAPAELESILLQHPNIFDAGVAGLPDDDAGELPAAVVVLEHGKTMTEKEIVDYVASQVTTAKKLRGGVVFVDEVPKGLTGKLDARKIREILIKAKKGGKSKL

HepG2-A16-CD81EGFP cells [4] = conditions: human, 50 uM
HepG2-A16-CD81EGFP cells [5] = assay: cells; conditions: Homo sapiens, HepG2, read-out: % inhibition
[6] = HepG2, read-out: HepG2 Tox% @ 50 uM rep1
[7] = read-out: Inhibition% @ 50 uM rep1
[8] = read-out: Inhibition% @ 50 uM rep2
[9] = read-out: PbLuc IC50, dose response, unit inferred
[10] = read-out: PbLuc max inhibition (%) @ 50 uM
[11] = read-out: PbLuc IC50, dose response, 1/3 dilutions, max conc. 10 or 50 uM, unit inferred
[12] = HepG2, read-out: HepG2 Tox% @ 50 uM rep2

COc1ccc2c(c1OC)C(=O)N1c3ccccc3N=C(c3ccc(C)cc3)CC21 (stereo not shown) [MMV000917]
cytotoxicity at 50 µM (HepG2-A16-CD81EGFP cells [1]; [6]): 15% | IC50 (HepG2-A16-CD81EGFP cells [1]): > 50 µM | inhibition at 50 µM (HepG2-A16-CD81EGFP cells [1]): 7% | inhibition at 50 µM [2, 7]: 96% | inhibition at 50 µM [2, 8]: 95% | IC50 [2, 9]: > 50 µM | inhibition at 50 µM [2, 10]: 96% | IC50 [3]: > 50 µM | Emax [3]: 23%

CN1CCN(c2nc(Nc3ccc(O)cc3)nc3ccccc23)CC1 [MMV000986]
cytotoxicity at 50 µM (HepG2-A16-CD81EGFP cells [1]; [6]): 25% | IC50 (HepG2-A16-CD81EGFP cells [1]): > 50 µM | inhibition at 50 µM (HepG2-A16-CD81EGFP cells [1]): 7% | inhibition at 50 µM [2, 7]: 86% | inhibition at 50 µM [2, 8]: 90% | IC50 [2, 11]: 20.4 µM | inhibition at 50 µM [2, 10]: 94% | IC50 [3]: 21.9 µM | Emax [3]: 69%

COc1ccc(C)c2sc(N(Cc3cccnc3)C(=O)c3ccc(C#N)cc3)nc12 [MMV001241]
cytotoxicity at 50 µM (HepG2-A16-CD81EGFP cells [1]; [6]): 18% | IC50 (HepG2-A16-CD81EGFP cells [1]): > 50 µM | inhibition at 50 µM (HepG2-A16-CD81EGFP cells [1]): 22% | inhibition at 50 µM [2, 7]: 100% | inhibition at 50 µM [2, 8]: 102% | IC50 [2, 9]: 21.5 µM | inhibition at 50 µM [2, 10]: 101% | IC50 [3]: > 50 µM | Emax [3]: 7%

O=C(NCc1ccco1)C1CCN(S(=O)(=O)c2ccc(Cl)cc2)CC1 [MMV006188]
cytotoxicity at 50 µM (HepG2-A16-CD81EGFP cells [1]; [6]): 22% | cytotoxicity at 50 µM (HepG2-A16-CD81EGFP cells [1]; [12]): 28% | IC50 (HepG2-A16-CD81EGFP cells [1]): > 50 µM | inhibition at 50 µM (HepG2-A16-CD81EGFP cells [1]): 28% | inhibition at 50 µM [2, 7]: 102% | inhibition at 50 µM [2, 8]: 102% | IC50 [2, 11]: 0.707 µM | inhibition at 50 µM [2, 10]: 106% | IC50 [3]: > 50 µM | Emax [3]: 22%

CCOC(=O)c1cnc2c(C)cccc2c1Nc1ccc(C(C)=O)cc1 [MMV006250]
cytotoxicity at 50 µM (HepG2-A16-CD81EGFP cells [1]; [6]): 18% | IC50 (HepG2-A16-CD81EGFP cells [1]): > 50 µM | inhibition at 50 µM (HepG2-A16-CD81EGFP cells [1]): 0% | inhibition at 50 µM [2, 7]: 88% | inhibition at 50 µM [2, 8]: 91% | IC50 [2, 9]: 28.2 µM | inhibition at 50 µM [2, 10]: 84% | IC50 [3]: > 50 µM | Emax [3]: 27%

CCCCc1c(C)nc2c(OC)cccc2c1O [MMV006820]
cytotoxicity at 50 µM (HepG2-A16-CD81EGFP cells [1]; [6]): -15% | cytotoxicity at 50 µM (HepG2-A16-CD81EGFP cells [1]; [12]): -12% | IC50 (HepG2-A16-CD81EGFP cells [1]): > 10 µM | inhibition at 10 µM (HepG2-A16-CD81EGFP cells [1]): 15% | inhibition at 50 µM [2, 7]: 99% | inhibition at 50 µM [2, 8]: 102% | IC50 [2, 11]: 0.162 µM | inhibition at 10 µM [2]: 110% | IC50 [3]: > 20 µM | Emax [3]: 41%

C=CCc1c(C)nc2ccccc2c1O [MMV006913]
cytotoxicity at 50 µM (HepG2-A16-CD81EGFP cells [1]; [6]): -8% | cytotoxicity at 50 µM (HepG2-A16-CD81EGFP cells [1]; [12]): -5% | IC50 (HepG2-A16-CD81EGFP cells [1]): > 10 µM | inhibition at 10 µM (HepG2-A16-CD81EGFP cells [1]): 15% | inhibition at 50 µM [2, 7]: 100% | inhibition at 50 µM [2, 8]: 97% | IC50 [2, 11]: 0.292 µM | inhibition at 10 µM [2]: 108% | IC50 [3]: > 20 µM | Emax [3]: 38%

Cc1ccc(-c2cc3nc4c(c(O)n3n2)CCCC4)cc1 [MMV006937]
cytotoxicity at 50 µM (HepG2-A16-CD81EGFP cells [1]; [6]): -11% | cytotoxicity at 50 µM (HepG2-A16-CD81EGFP cells [1]; [12]): -9% | IC50 (HepG2-A16-CD81EGFP cells [1]): > 10 µM | inhibition at 10 µM (HepG2-A16-CD81EGFP cells [1]): 6.62% | inhibition at 50 µM [2, 7]: 103% | inhibition at 50 µM [2, 8]: 102% | IC50 [2, 11]: 0.114 µM | inhibition at 10 µM [2]: 110% | IC50 [3]: 1.79 µM | Emax [3]: 92%

CCOC(=O)c1cnc2ccc(CC)cc2c1O [MMV007116]
cytotoxicity at 50 µM (HepG2-A16-CD81EGFP cells [1]; [6]): -3.48% | cytotoxicity at 50 µM (HepG2-A16-CD81EGFP cells [1]; [12]): -3.29% | IC50 (HepG2-A16-CD81EGFP cells [1]): > 10 µM | inhibition at 10 µM (HepG2-A16-CD81EGFP cells [1]): 10% | inhibition at 50 µM [2, 7]: 102% | inhibition at 50 µM [2, 8]: 101% | IC50 [2, 11]: 0.0491 µM | inhibition at 10 µM [2]: 110% | IC50 [3]: > 20 µM | Emax [3]: 17%

COc1ccccc1N1C(=N)SC(=Cc2ccc(OCc3ccccc3F)cc2)C1=O [MMV007199]
cytotoxicity at 50 µM (HepG2-A16-CD81EGFP cells [1]; [6]): 14% | IC50 (HepG2-A16-CD81EGFP cells [1]): > 50 µM | inhibition at 50 µM (HepG2-A16-CD81EGFP cells [1]): 24% | inhibition at 50 µM [2, 7]: 102% | inhibition at 50 µM [2, 8]: 101% | IC50 [2, 11]: 1.82 µM | inhibition at 50 µM [2, 10]: 106% | IC50 [3]: > 50 µM | Emax [3]: 25%

CCOc1ccc(Nc2ccnc3cc(Cl)ccc23)cc1 [MMV007285]
cytotoxicity at 50 µM (HepG2-A16-CD81EGFP cells [1]; [6]): 16% | IC50 (HepG2-A16-CD81EGFP cells [1]): > 50 µM | inhibition at 50 µM (HepG2-A16-CD81EGFP cells [1]): 14% | inhibition at 50 µM [2, 7]: 88% | inhibition at 50 µM [2, 8]: 91% | IC50 [2, 11]: 1.65 µM | inhibition at 50 µM [2, 10]: 100% | IC50 [3]: > 50 µM | Emax [3]: 47%

CCc1ccc(Nc2cc(C)nc3nc(C)nn23)cc1 [MMV007374]
cytotoxicity at 50 µM (HepG2-A16-CD81EGFP cells [1]; [6]): 11% | cytotoxicity at 50 µM (HepG2-A16-CD81EGFP cells [1]; [12]): 15% | IC50 (HepG2-A16-CD81EGFP cells [1]): > 50 µM | inhibition at 50 µM (HepG2-A16-CD81EGFP cells [1]): 9% | inhibition at 50 µM [2, 7]: 92% | inhibition at 50 µM [2, 8]: 91% | IC50 [2, 11]: 4.8 µM | inhibition at 50 µM [2, 10]: 101% | IC50 [3]: > 50 µM | Emax [3]: 30%

OC(CNC1CCCCC1)Cn1c2ccccc2c2ccccc21 (stereo not shown) [MMV009063]
HepG2 Tox% @ 50 uM rep2 (HepG2-A16-CD81EGFP cells [4]): 101% | inhibition at 50 µM (HepG2-A16-CD81EGFP cells [5]): 98.6% | inhibition at 50 µM [2, 7]: 104% | inhibition at 50 µM [2, 8]: 105%

COc1cccc(Nc2nc(NCCO)c3ccccc3n2)c1 [MMV011944]
HepG2 Tox% @ 50 uM rep1 (HepG2-A16-CD81EGFP cells [4]): 100% | HepG2 Tox% @ 50 uM rep2 (HepG2-A16-CD81EGFP cells [4]): 101% | inhibition at 50 µM (HepG2-A16-CD81EGFP cells [5]): 99.7% | inhibition at 50 µM [2, 7]: 103% | inhibition at 50 µM [2, 8]: 106%

COCCNCC(O)Cn1c2ccc(Cl)cc2c2cc(Cl)ccc21 (stereo not shown) [MMV019017]
HepG2 Tox% @ 50 uM rep2 (HepG2-A16-CD81EGFP cells [4]): 99% | inhibition at 50 µM (HepG2-A16-CD81EGFP cells [5]): 96.7% | inhibition at 50 µM [2, 7]: 103% | inhibition at 50 µM [2, 8]: 102%

Cn1c(=O)c2cc(C(=O)NCCCN3CCCCCC3)sc2c2ccccc21 [MMV019313]
HepG2 Tox% @ 50 uM rep1 (HepG2-A16-CD81EGFP cells [4]): 100% | inhibition at 50 µM (HepG2-A16-CD81EGFP cells [5]): 99.9% | inhibition at 50 µM [2, 7]: 104% | inhibition at 50 µM [2, 8]: 106%

CCN1CCN(Cc2ccc(NC(=O)c3cc4ccc5cccnc5c4[nH]3)cc2)CC1 [MMV020548]
HepG2 Tox% @ 50 uM rep2 (HepG2-A16-CD81EGFP cells [4]): 100% | inhibition at 50 µM (HepG2-A16-CD81EGFP cells [5]): 98.4% | inhibition at 50 µM [2, 7]: 102% | inhibition at 50 µM [2, 8]: 106%

O=C(Nc1ccc(CN2CCOCC2)cc1)c1ccc(-c2cc(Cl)ccc2Cl)o1 [MMV020651]
HepG2 Tox% @ 50 uM rep2 (HepG2-A16-CD81EGFP cells [4]): 96% | inhibition at 50 µM (HepG2-A16-CD81EGFP cells [5]): 93.9% | inhibition at 50 µM [2, 7]: 100% | inhibition at 50 µM [2, 8]: 99%
